Measurements from patent US7410975B2, “Small molecule toll-like receptor (TLR) antagonists” (Coley Pharmaceutical Group, Inc., priority 2003, dated 2008).
Where a name gives a salt, the structure may show the parent alone.

Target: T1, human TLR7 (hTLR7) (Homo sapiens, UniProt Q9NYK1)
T1 construct: expressed in transfected cells
T1 sequence (Q9NYK1 27-1049): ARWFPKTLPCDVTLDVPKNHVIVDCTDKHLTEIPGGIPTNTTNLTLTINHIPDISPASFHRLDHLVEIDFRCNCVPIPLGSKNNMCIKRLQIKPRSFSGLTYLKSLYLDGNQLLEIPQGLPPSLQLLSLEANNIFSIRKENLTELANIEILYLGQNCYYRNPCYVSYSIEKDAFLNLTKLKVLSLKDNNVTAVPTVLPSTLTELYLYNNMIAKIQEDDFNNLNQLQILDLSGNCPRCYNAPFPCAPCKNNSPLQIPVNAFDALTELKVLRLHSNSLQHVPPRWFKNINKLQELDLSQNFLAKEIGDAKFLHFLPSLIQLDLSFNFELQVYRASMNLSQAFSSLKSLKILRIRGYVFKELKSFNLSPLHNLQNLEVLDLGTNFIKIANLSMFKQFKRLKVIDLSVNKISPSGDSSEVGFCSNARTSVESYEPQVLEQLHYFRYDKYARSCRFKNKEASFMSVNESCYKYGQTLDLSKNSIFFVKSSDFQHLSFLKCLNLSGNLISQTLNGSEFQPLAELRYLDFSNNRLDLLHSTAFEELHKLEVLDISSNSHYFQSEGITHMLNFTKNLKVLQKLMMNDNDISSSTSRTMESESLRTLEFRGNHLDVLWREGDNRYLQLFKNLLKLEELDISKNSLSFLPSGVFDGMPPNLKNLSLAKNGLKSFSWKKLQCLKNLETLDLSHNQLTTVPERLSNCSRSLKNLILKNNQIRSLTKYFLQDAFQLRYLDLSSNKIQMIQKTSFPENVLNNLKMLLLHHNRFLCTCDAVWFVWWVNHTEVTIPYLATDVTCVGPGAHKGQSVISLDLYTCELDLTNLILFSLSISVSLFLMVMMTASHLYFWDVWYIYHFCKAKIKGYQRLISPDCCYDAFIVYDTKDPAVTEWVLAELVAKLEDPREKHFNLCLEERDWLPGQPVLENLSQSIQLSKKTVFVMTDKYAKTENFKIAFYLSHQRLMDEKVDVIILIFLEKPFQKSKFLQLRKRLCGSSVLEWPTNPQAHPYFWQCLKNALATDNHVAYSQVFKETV
Assay: Antagonist screen, hTLR7-NFκB-293 cells, NF-κB-luciferase reporter, with EC50 of R848
Type: cell-based
Details: compound at 0.5, 5, 50 μg/ml; EC50 concentration of R848; 16 h; NF-κB-luciferase

Structure (SMILES) | hTLR7 (inhibitory effect, antagonist score)
CN1CCc2cccc3c2[C@H]1Cc1ccc(O)c(O)c1-3.Cl [compound 101, Apomorphinehydrochloride (R, —)] | — (compounds for which there was no clear down regulation even at 50 μg/ml)
CC(C)(C)c1ccc(C(O)CCCN2CCC(C(O)(c3ccccc3)c3ccccc3)CC2)cc1 (stereo not shown) [compound 138, Terfenadine] | 11 (compounds for which there was clear down regulation only at 50 μg/ml)
CN(C)C(=O)C(CCN1CCC(O)(c2ccc(Cl)cc2)CC1)(c1ccccc1)c1ccccc1 [compound 144, Loperamidehydrochloride] | 11 (compounds for which there was clear down regulation only at 50 μg/ml)
COc1cc2c(cc1O)C[C@H]1c3c(cc(O)c(OC)c3-2)CCN1C [compound 600, Boldine] | — (compounds for which there was no clear down regulation even at 50 μg/ml)
CN1CCc2cc3c(c4c2C1Cc1ccccc1-4)OCO3.Cl (stereo not shown) [compound 669, Remerine hydrochloride] | 11 (compounds for which there was clear down regulation only at 50 μg/ml)
COc1cc2nc(N3CCN(C(=O)C4CCCO4)CC3)nc(N)c2cc1OC.Cl (stereo not shown) [compound 751, Terazosin hydrochloride] | — (compounds for which there was no clear down regulation even at 50 μg/ml)
COc1cc2nc(N3CCN(C(=O)C4COc5ccccc5O4)CC3)nc(N)c2cc1OC.CS(=O)(=O)O (stereo not shown) [compound 858, Doxazosin mesylate] | — (compounds for which there was no clear down regulation even at 50 μg/ml)
CCN(CC)CCCC(C)Nc1nc(/C=C/c2ccc(Cl)cc2)nc2cc3ccccc3cc12 (stereo not shown) [compound 2000] | 13 (compounds for which there was clear down regulation at 0.5 μg/ml, 5 μg/ml, and 50 μg/ml)
CCN(CC)CCCNc1nc(-c2ccccc2)nc2ccccc12 [compound 2001] | 11 (compounds for which there was clear down regulation only at 50 μg/ml)

Same assay, conditions: hTLR7-NFκB-293 cells, with EC50 of R848; compound at 0.5, 5 and 50 μg/ml

Structure (SMILES) | hTLR7 (inhibitory effect)
COc1cc2cc3c4cc(OC)c(OC)cc4cc[n+]3c(C)c2cc1OC [compound 431, Coralyne chloridehydrate] | — (compounds for which there was no clear down regulation even at 50 μg/ml)
COc1ccc(Cc2nccc3cc(OC)c(OC)cc23)cc1OC.Cl [compound 583, Papaverinehydrochloride] | 11 (compounds for which there was clear down regulation only at 50 μg/ml)
COc1ccc2cc3[n+](cc2c1OC)CCc1cc2c(cc1-3)OCO2.[Cl-] [compound 586, Berberine chloride] | — (compounds for which there was no clear down regulation even at 50 μg/ml)
CC[N+](C)(CC)CCC[n+]1c(-c2ccccc2)c2cc(N)ccc2c2ccc(N)cc21.[I-].[I-] [compound 792, Propidium iodide] | — (compounds for which there was no clear down regulation even at 50 μg/ml)
CN(C)CCN(Cc1ccc(Cl)cc1)c1ccccn1.Cl [compound 807, Chloro-pyraminehydrochloride] | — (compounds for which there was no clear down regulation even at 50 μg/ml)
CCOc1ccc(Cc2nccc3cc(OCC)c(OCC)cc23)cc1OCC.Cl [compound 830, Ethaverinehydrochloride] | 11 (compounds for which there was clear down regulation only at 50 μg/ml)
O=c1c2c(nc(NCCO)n1-c1ccccc1)-c1ccccc1CC21CCCC1 [compound 891] | 11 (compounds for which there was clear down regulation only at 50 μg/ml)
O=c1c2c(nc(NCCO)n1Cc1ccccc1)-c1ccccc1CC21CCCC1 [compound 926] | 11 (compounds for which there was clear down regulation only at 50 μg/ml)
CN1CCc2c1nc1ccccc1c2N [compound 990, 1-Methyl-2,3-dihydro-1H-pyrrolo[2,3-b]quinolin-4-ylamine] | — (compounds for which there was no clear down regulation even at 50 μg/ml)
CN1CCc2c1nc1ccccc1c2NC(=O)CN1CCCCCC1 [compound 1003] | 11 (compounds for which there was clear down regulation only at 50 μg/ml)
Cc1ccc2nc3c(c(N)c2c1)CCN3C [compound 1091, 1,6-Dimethyl-2,3-dihydro-1H-pyrrolo[2,3-b]quinolin-4-ylamine] | 11 (compounds for which there was clear down regulation only at 50 μg/ml)
Cc1ccc(-n2c(NCCO)nc3c(c2=O)C2(CCCCC2)Cc2ccccc2-3)cc1 [compound 1137] | 12 (compounds for which there was clear down regulation at 5 μg/ml and 50 μg/ml)
CN1CCc2c1nc1ccc(Br)cc1c2N [compound 1142, 6-Bromo-1-methyl-2,3-dihydro-1H-pyrrolo[2,3-b]quinolin-4-ylamine] | 11 (compounds for which there was clear down regulation only at 50 μg/ml)
O=C1c2ccc(S(=O)(=O)c3ccc4c(c3)C(=O)N(c3ccccn3)C4=O)cc2C(=O)N1c1ccccn1 [compound 1163] | 11 (compounds for which there was clear down regulation only at 50 μg/ml)
CN1CCCCc2c1nc1ccccc1c2N [compound 1185, 1-Methyl-2,3,4,5-tetrahydro-1H-azepino[2,3-b]quinolin-6-ylamine] | — (compounds for which there was no clear down regulation even at 50 μg/ml)
CN1CCc2c1nc1ccccc1c2NC(=O)CN1CCN(c2ccccc2)CC1 [compound 1212] | 11 (compounds for which there was clear down regulation only at 50 μg/ml)
Cn1c(NN)nc2c(c1=O)C1(CCCC1)Cc1ccccc1-2 [compound 1213] | 11 (compounds for which there was clear down regulation only at 50 μg/ml)
Nc1c2c(nc3ccccc13)N(Cc1ccccc1)CC2 [compound 1217, 1-Benzyl-2,3-dihydro-1H-pyrrolo[2,3-b]quinolin-4-ylamine] | 13 (compounds for which there was clear down regulation at 0.5 μg/ml, 5 μg/ml, and 50 μg/ml)
CCCCCCN(CCCCCC)CC(=O)Nc1c2c(nc3ccccc13)N(C)CC2 [compound 1224] | 12 (compounds for which there was clear down regulation at 5 μg/ml and 50 μg/ml)
O=C(CN1CCCC1)Nc1c2c(nc3ccccc13)N(c1ccccc1)CC2 [compound 1244] | 11 (compounds for which there was clear down regulation only at 50 μg/ml)
NNc1nc2c(c(=O)n1C1CCCC1)C1(CCCC1)Cc1ccccc1-2 [compound 1248] | 11 (compounds for which there was clear down regulation only at 50 μg/ml)
NNc1nc2c(c(=O)n1-c1ccccc1)C1(CCCC1)Cc1ccccc1-2 [compound 1320] | — (compounds for which there was no clear down regulation even at 50 μg/ml)
O=c1[nH]c(NCCO)nc2c1C1(CCCC1)Cc1ccccc1-2 [compound 1322] | 11 (compounds for which there was clear down regulation only at 50 μg/ml)
CCCCCCCCCCCC(=O)Nc1c2c(nc3ccccc13)N(C)CC2 [compound 1334] | — (compounds for which there was no clear down regulation even at 50 μg/ml)
O=C1c2ccc(Oc3ccc(S(=O)(=O)c4ccc(Oc5ccc6c(c5)C(=O)N(c5ccccn5)C6=O)cc4)cc3)cc2C(=O)N1c1ccccn1 [compound 1367] | 11 (compounds for which there was clear down regulation only at 50 μg/ml)
